The results in this text go back to patent US9877927B2, “Inhibitor of odor caused by Furaneol” (Kao Corporation, priority 2013, dated 2018).

In test [1] the target is T1, olfactory receptor OR5K1 (Homo sapiens, UniProt Q8NHB7).
T1 construct: expressed in transfected cells; host or cells: HEK293
T1 sequence (Q8NHB7 1-308): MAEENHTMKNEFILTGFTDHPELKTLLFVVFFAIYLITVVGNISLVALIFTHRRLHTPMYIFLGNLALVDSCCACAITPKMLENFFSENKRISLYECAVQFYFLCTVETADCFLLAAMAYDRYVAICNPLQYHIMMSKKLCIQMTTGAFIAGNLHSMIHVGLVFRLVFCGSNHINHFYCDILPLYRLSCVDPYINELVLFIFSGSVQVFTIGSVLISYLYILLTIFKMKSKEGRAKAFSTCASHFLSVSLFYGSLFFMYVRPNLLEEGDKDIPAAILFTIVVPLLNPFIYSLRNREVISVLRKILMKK
Nature of the test: Antagonistic activity against the response of OR5K1 to Furaneol (luciferase assay). In kind it is cell-based. The settings on record: Furaneol 3 mM, test substance 100 μM, HEK293 cells expressing OR5K1; vs Furaneol alone; read-out: Rate of inhibition of the response of OR5K1 to Furaneol. On the procedure:
Furaneol (3 mM) and each test substance (100 μM) were added to HEK293 cells allowed to express the olfactory receptor OR5K1 by the same procedures as in Example 2. The response of the olfactory receptor was measured to evaluate change in receptor response caused by the addition of the test substance.
The rate of inhibition of the receptor response by the test substance was calculated as follows: firefly luciferase-derived luminescence intensity (Y) in the olfactory receptor OR5K1-expressing cells without Furaneol stimulation was subtracted from luminescence intensity (X) induced by stimulation with Furaneol alone to determine receptor activity (X−Y) based on the stimulation with Furaneol alone. Likewise, the luminescence intensity (Y) in the cells without Furaneol stimulation was subtracted from luminescence intensity (Z) induced by stimulation with the mixture of Furaneol and the test substance to determine receptor activity (Z−Y) in the presence of the test substance. The rate of reduction in the receptor activity (Z−Y) in the presence of the test substance with respect to the receptor activity (X−Y) based on the stimulation with Furaneol alone was calculated according to an expression shown below to determine the rate of inhibition of the receptor response by the test substance. In this assay, a plurality of independent duplicate experiments were performed. An average of the experiments in each run was obtained. Rate of inhibition (%)={1−(Z−Y)/(X−Y)}×100

For test [2], the target named is T1, olfactory receptor OR5K1. As to the kind of experiment: Luciferase reporter gene assay, response of olfactory receptor to Furaneol. The test is classed as cell-based. From the text: On the basis of sequence information registered in GenBank, each human olfactory receptor gene was cloned by PCR with Human Genomic DNA Female (G1521: Promega Corp.) as a template. Each gene thus amplified by PCR was inserted into a pENTR vector (Invitrogen Corp.) according to the manual. A NotI-AscI site present on the pENTR vector was recombined into a NotI-AscI site prepared downstream of a Flag-Rho tag sequence on a pME18S vector.
A gene (GenBank GI: 50234917) encoding a human receptor transporting protein, RTP1S was inserted into the EcoRI-XhoI site of the pME18S vector.
HEK293 cells expressing each of 400 types of human olfactory receptors were prepared. […]
The olfactory receptors expressed on the HEK293 cells are conjugated with intracellular Gas to activate adenylate cyclase, thereby increasing intracellular cAMP levels. In this study, their responses to Furaneol were measured using luciferase reporter gene assay which involved monitoring increase in intracellular cAMP level as luminescence intensity derived from a firefly luciferase gene (fluc2P-CRE-hygro). […]
A medium was removed from the cultures prepared in the preceding paragraph 3). […] The luciferase activity was measured using Dual-Glo™ luciferase assay system (Promega Corp.) according to the instruction manual of the product. […]
Background: Reporter assays use an easily measured gene product as a stand-in for the process of interest.

In the case of `CC(=O)O[C@]1(C)CC[C@@]23C[C@@H]1C(C)(C)[C@@H]2CC[C@H]3C` [Cedryl acetate], on olfactory receptor OR5K1 [1], the inhibition (as a rule, the relative decrease from the control value, in per cent) at 100 µM was ≥ 50%. Same read-out and setting: as for `CC(C)=CCCC(C)=CC=O` [Citral], the figure is ≥ 75%.

Turning to `CC1=C(O)C(=O)C(C)O1` (centres unmarked) [Furaneol, 2,5-dimethyl-4-hydroxy-3(2H)-furanone], on olfactory receptor OR5K1 [2] (Furaneol 0, 3, 10, 30, 100, 300, 1000, 3000 μM, OR5K1 with human RTP1S in HEK293 cells), the “Concentration dependence of OR5K1 response to Furaneol” value is reported as “concentration-dependent response”. Further, the “Response of olfactory receptors to Furaneol (fold increase in luminescence)” value at olfactory receptor OR5K1 [2] (Furaneol 3 mM, 400 types of human olfactory receptors in HEK293 cells) was “only the olfactory receptor OR5K1 exhibited a response”. On to `CC(=O)c1cc2c(cc1C)C(C)(C)C(C)CC2(C)C` [Tonalid(R), 1-(5,6,7,8-tetrahydro-3,5,5,6,8,8-hexamethyl-2-naphthalenyl)-ethanone], for which, at olfactory receptor OR5K1 [1], the inhibition at 100 µM is ≥ 75%.
